In US20230087118A1, “IMIDAZO[1,2-a][sequence] DERIVATIVES AND THEIR USE IN THE TREATMENT OF DISEASE” (priority 2019, published 2023):
pIC50: −log10 of the molar value. Structures can show the parent of a compound that is named as a salt. Where two headings read alike, the source gives them in different places.

Target: T1, IRAK4 (Homo sapiens, UniProt Q9NWZ3)
T1 sequence (Q9NWZ3 1-460): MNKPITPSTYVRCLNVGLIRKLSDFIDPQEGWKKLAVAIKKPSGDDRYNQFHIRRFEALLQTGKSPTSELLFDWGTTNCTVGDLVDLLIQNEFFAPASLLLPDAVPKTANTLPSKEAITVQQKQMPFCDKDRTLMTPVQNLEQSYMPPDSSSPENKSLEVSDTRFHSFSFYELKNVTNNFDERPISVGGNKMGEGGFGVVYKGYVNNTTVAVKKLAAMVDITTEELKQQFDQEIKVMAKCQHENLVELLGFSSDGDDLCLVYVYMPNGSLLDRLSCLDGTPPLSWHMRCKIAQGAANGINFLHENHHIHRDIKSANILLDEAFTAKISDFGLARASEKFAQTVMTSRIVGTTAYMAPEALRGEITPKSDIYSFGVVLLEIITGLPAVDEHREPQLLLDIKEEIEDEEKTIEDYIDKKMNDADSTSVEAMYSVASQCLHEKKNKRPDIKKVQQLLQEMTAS
Assay: biochemical

| IC50 (IRAK4 Biochemical Assay (1 mM ATP, 2 h) IC50 (μM), 1 mM ATP, 2 h, 100 pM IRAK4) [µM] | Compound | pIC50 |
| --- | --- | --- |
|  | CC12CC(c3cn4cc(C(=O)Nc5ccn(CC6CC6)n5)c(OC5CCC5)cc4n3)(CO1)C2 [Example 525, 7-Cyclobutoxy-N-(1-(cyclopropylmethyl)-1H-pyrazol-3-yl)-2-(1-methyl-2-oxabicyclo[2.1.1]hexan-4-yl)imidazo[1,2-a]pyridine-6-carboxamide] | 7.73 |
|  | COc1ncccc1NC(=O)c1cn2cc(C34COC(C)(C3)C4)nc2cc1OC1CCC1 [Example 526, 7-Cyclobutoxy-N-(2-methoxypyridin-3-yl)-2-(1-methyl-2-oxa-bicyclo[2.1.1]hexan-4-yl)imidazo[1,2-a]pyridine-6-carboxamide] | 9.52 |
|  | CC12CC(c3cn4cc(C(=O)Nc5ccn(CC#N)n5)c(OC5CCC5)cc4n3)(CO1)C2 [Example 527, N-(1-(cyanomethyl)-1H-pyrazol-3-yl)-7-cyclobutoxy-2-(1-methyl-2-oxabicyclo[2.1.1]hexan-4-yl)imidazo[1,2-a]pyridine-6-carboxamide] | 8.36 |
|  | CCn1ccc(NC(=O)c2cn3cc(C45COC(C)(C4)C5)nc3cc2OC2CCC2)n1 [Example 528, 7-Cyclobutoxy-N-(1-ethyl-1H-pyrazol-3-yl)-2-(1-methyl-2-oxabicyclo[2.1.1]hexan-4-yl)imidazo[1,2-a]pyridine-6-carboxamide] | 8.28 |
|  | COc1cccc(NC(=O)c2cn3cc(C45COC(C)(C4)C5)nc3cc2OC2CCC2)n1 [Example 529, 7-Cyclobutoxy-N-(6-methoxypyridin-2-yl)-2-(1-methyl-2-oxabicyclo[2.1.1]hexan-4-yl)imidazo[1,2-a]pyridine-6-carboxamide] | 9.52 |
|  | CC12CC(c3cn4cc(C(=O)Nc5ccn(CC(F)F)n5)c(OC5CCC5)cc4n3)(CO1)C2 [Example 530, 7-Cyclobutoxy-N-(1-(2,2-difluoroethyl)-1H-pyrazol-3-yl)-2-(1-methyl-2-oxabicyclo[2.1.1]hexan-4-yl)imidazo[1,2-a]pyridine-6-carboxamide] | 8.25 |
|  | Cc1cc(-n2ccc(NC(=O)c3cn4cc(C56CCC(C)(C5)OC6)nc4cc3OC3CCC3)n2)ccn1 (centres unmarked) [Example 531, 7-Cyclobutoxy-2-(1-methyl-2-oxabicyclo[2.2.1]heptan-4-yl)-N-(1-(2-methylpyridin-4-yl)-1H-pyrazol-3-yl)imidazo[1,2-a]pyridine-6-carboxamide] | 9.10 |
|  | CC12CCC(c3cn4cc(C(=O)Nc5ccn(CC#N)n5)c(OC5CCC5)cc4n3)(CO1)C2 (centres unmarked) [Example 532, N-(1-(cyanomethyl)-1H-pyrazol-3-yl)-7-cyclobutoxy-2-(1-methyl-2-oxabicyclo[2.2.1]heptan-4-yl)imidazo[1,2-a]pyridine-6-carboxamide] | 8.54 |
|  | CCn1ccc(NC(=O)c2cn3cc(C45CCC(C)(C4)OC5)nc3cc2OC2CCC2)n1 (centres unmarked) [Example 533, 7-Cyclobutoxy-N-(1-ethyl-1H-pyrazol-3-yl)-2-(1-methyl-2-oxabicyclo[2.2.1]heptan-4-yl)imidazo[1,2-a]pyridine-6-carboxamide] | 8.43 |
|  | CC12CCC(c3cn4cc(C(=O)Nc5ccn(CC6CC6)n5)c(OC5CCC5)cc4n3)(CO1)C2 (centres unmarked) [Example 534, 7-Cyclobutoxy-N-(1-(cyclopropylmethyl)-1H-pyrazol-3-yl)-2-(1-methyl-2-oxabicyclo[2.2.1]heptan-4-yl)imidazo[1,2-a]pyridine-6-carboxamide] | 7.87 |
|  | CCn1cccc(NC(=O)c2cn3cc(C45CCC(C)(C4)OC5)nc3cc2OC2CCC2)c1=O (centres unmarked) [Example 535, 7-Cyclobutoxy-N-(1-ethyl-2-oxo-1,2-dihydropyridin-3-yl)-2-(1-methyl-2-oxabicyclo[2.2.1]heptan-4-yl)imidazo[1,2-a]pyridine-6-carboxamide] | 8.96 |
|  | CC12CCC(c3cn4cc(C(=O)Nc5cccnc5OC(F)F)c(OC5CCC5)cc4n3)(CO1)C2 (centres unmarked) [Example 536, 7-Cyclobutoxy-N-(2-(difluoromethoxy)pyridin-3-yl)-2-(1-methyl-2-oxabicyclo[2.2.1]heptan-4-yl)imidazo[1,2-a]pyridine-6-carboxamide] | 8.80 |
|  | CC12CCC(c3cn4cc(C(=O)Nc5ccn(CCF)n5)c(OC5CCC5)cc4n3)(CO1)C2 (centres unmarked) [Example 537, 7-Cyclobutoxy-N-(1-(2-fluoroethyl)-1H-pyrazol-3-yl)-2-(1-methyl-2-oxabicyclo[2.2.1]heptan-4-yl)imidazo[1,2-a]pyridine-6-carboxamide] | 8.20 |
|  | CC12CCC(c3cn4cc(C(=O)Nc5cccn(C(F)F)c5=O)c(OC5CCC5)cc4n3)(CO1)C2 (centres unmarked) [Example 538, 7-Cyclobutoxy-N-(1-(difluoromethyl)-2-oxo-1,2-dihydropyridin-3-yl)-2-(1-methyl-2-oxabicyclo[2.2.1]heptan-4-yl)imidazo[1,2-a]pyridine-6-carboxamide] | 9.52 |
|  | CC(C)Oc1ncccc1NC(=O)c1cn2cc(C34CCC(C)(C3)OC4)nc2cc1OC1CCC1 (centres unmarked) [Example 539, 7-Cyclobutoxy-N-(2-isopropoxypyridin-3-yl)-2-(1-methyl-2-oxabicyclo[2.2.1]heptan-4-yl)imidazo[1,2-a]pyridine-6-carboxamide] | 7.64 |
|  | CC12CCC(c3cn4cc(C(=O)Nc5cccn6cnnc56)c(OC5CCC5)cc4n3)(CO1)C2 (centres unmarked) [Example 540, N-([1,2,4]triazolo[4,3-a]pyridin-8-yl)-7-cyclobutoxy-2-(1-methyl-2-oxabicyclo[2.2.1]heptan-4-yl)imidazo[1,2-a]pyridine-6-carboxamide] | 9.10 |
|  | COc1cccc(NC(=O)c2cn3cc(C45CCC(C)(C4)OC5)nc3cc2OC2CCC2)n1 (centres unmarked) [Example 541, 7-Cyclobutoxy-N-(6-methoxypyridin-2-yl)-2-(1-methyl-2-oxabicyclo[2.2.1]heptan-4-yl)imidazo[1,2-a]pyridine-6-carboxamide] | 9.70 |
|  | Cn1cc(-c2cccc(NC(=O)c3cn4cc(C56CCC(C)(C5)OC6)nc4cc3OC3CCC3)n2)cn1 (centres unmarked) [Example 542, 7-Cyclobutoxy-N-(6-(1-methyl-1H-pyrazol-4-yl)pyridin-2-yl)-2-(1-methyl-2-oxabicyclo[2.2.1]heptan-4-yl)imidazo[1,2-a]pyridine-6-carboxamide] | 10.00 |

| IC50 (IRAK4 Biochemical Assay (1 mM ATP, 2 h) IC50 (μM), 1 mM ATP, 2 h, 100 pM IRAK4) [µM] | Compound | pIC50 |
| --- | --- | --- |
|  | CC12CCC(c3cn4cc(C(=O)Nc5ccn(CC(F)F)n5)c(OC5CCC5)cc4n3)(CO1)C2 (centres unmarked) [Example 543, 7-Cyclobutoxy-N-(1-(2,2-difluoroethyl)-1H-pyrazol-3-yl)-2-(1-methyl-2-oxabicyclo[2.2.1]heptan-4-yl)imidazo[1,2-a]pyridine-6-carboxamide] | 8.36 |
|  | CC(C)Oc1cc2nc(C34COC(C3)C4)cn2cc1C(=O)Nc1cccc(C(F)F)n1 [Example 544, 2-(2-Oxabicyclo[2.1.1]hexan-4-yl)-N-(6-(difluoromethyl)pyridin-2-yl)-7-isopropoxyimidazo[1,2-a]pyridine-6-carboxamide] | 9.70 |
|  | COc1ncccc1NC(=O)c1cn2cc(C34COC(C3)C4)nc2cc1OC(C)C [Example 545, 2-(2-Oxabicyclo[2.1.1]hexan-4-yl)-7-isopropoxy-N-(2-methoxypyridin-3-yl)imidazo[1,2-a]pyridine-6-carboxamide] | 8.89 |
|  | CC(C)Oc1cc2nc(C34COC(C3)C4)cn2cc1C(=O)Nc1ccn(C)n1 [Example 546, 2-(2-Oxabicyclo[2.1.1]hexan-4-yl)-7-isopropoxy-N-(1-methyl-1H-pyrazol-3-yl)imidazo[1,2-a]pyridine-6-carboxamide] | 8.07 |
|  | CC(C)Oc1cc2nc(C34COC(C3)C4)cn2cc1C(=O)Nc1cccn(C(F)F)c1=O [Example 547, 2-(2-Oxabicyclo[2.1.1]hexan-4-yl)-N-(1-(difluoromethyl)-2-oxo-1,2-dihydropyridin-3-yl)-7-isopropoxyimidazo[1,2-a]pyridine-6-carboxamide] | 9.10 |
| 0.0082 | COc1cccc(NC(=O)c2cn3cc(C45COC(C)(C4)C5)nc3c(F)c2OC(C)C)n1 [Example 548, 8-Fluoro-7-isopropoxy-N-(6-methoxypyridin-2-yl)-2-(1-methyl-2-oxabicyclo[2.1.1]hexan-4-yl)imidazo[1,2-a]pyridine-6-carboxamide trifluoroacetate] |  |
|  | CC1CC(Oc2cc3nc(C45COC(C)(C4)C5)cn3cc2C(=O)Nc2ccn(C)n2)C1 (centres unmarked) [Example 549] | 8.47 |
|  | Cn1ccc(NC(=O)c2cn3cc(C45COC(C)(C4)C5)nc3cc2OC2CC3(CC3)C2)n1 [Example 550] | 8.70 |
|  | CC12CC(c3cn4cc(C(=O)Nc5cnn6cccnc56)c(OC5CC5)cc4n3)(CO1)C2 [Example 551] | 8.72 |
|  | Cn1ccc(NC(=O)c2cn3cc(C45CCC(C)(C4)OC5)nc3cc2OC2CC2)n1 (centres unmarked) [Example 552] | 8.01 |
|  | CC12CCC(c3cn4cc(C(=O)Nc5cccn(C(F)F)c5=O)c(OC5CC5)cc4n3)(CO1)C2 (centres unmarked) [Example 553] | 8.82 |
|  | CC12CCC(c3cn4cc(C(=O)Nc5cnn6cccnc56)c(OC5CC5)cc4n3)(CO1)C2 (centres unmarked) [Example 554] | 9.10 |
|  | Cc1cnc2c(NC(=O)c3cn4cc(C56CCC(C)(C5)OC6)nc4cc3OC3CC3)cnn2c1 (centres unmarked) [Example 555] | 8.80 |
|  | CC12CCC(c3cn4cc(C(=O)Nc5cnn6cc(F)cnc56)c(OC5CC5)cc4n3)(CO1)C2 (centres unmarked) [Example 556] | 9.30 |
|  | Cn1cccc(NC(=O)c2cn3cc(C45CCC(C)(C4)OC5)nc3cc2OC2CCCC2)c1=O (centres unmarked) [Example 558] | 8.96 |
|  | CC[C@H](C)Oc1cc2nc(C34COC(C)(C3)C4)cn2cc1C(=O)Nc1cnn2cc(C)cnc12 [Example 559] | 9.15 |
|  | CC[C@@H](C)Oc1cc2nc(C34COC(C)(C3)C4)cn2cc1C(=O)Nc1cnn2cc(C)cnc12 [Example 560] | 8.92 |
